Data set [1] is described as follows: critical micelle concentration by 1D proton NMR. It is filed as physicochemical.
The next data set addresses T1, gp120 (IIIB)-CD4 complex (Homo sapiens, UniProt P01730).
T1 construct: soluble extracellular portion of CD4 (sCD4); purchased ImmunoDiagnostics, Inc., MA
As to the kind of experiment: gp120 capture ELISA, inhibition of gp120-CD4 complex formation. The data set is classed as binding, HIV-1. The procedure: Figure 3 Inhibition of gp120-CD4 complex formation. Inhibition of gp120-CD4 complex formation was investigated by gp120 capture ELISA. […] Strepavidin-HRP was added, and then developed by addition of o-Phenylenediamine dihydrochloride (OPD) substrate. Colorimetric reaction was stopped by adding 1N HCl, and read at 490 nm. Percent of gp120-CD4 binding was calculated from gp120-CD4 complex formation in the absence of any inhibitor. pKi (-log Ki, M) was calculated and plotted in Prizm (GraphPad Software), and inhibition constant, Ki, was calculated by using the equation Ki = IC50/(1+[CD4]/Kd), based on IC50 concentration of bound CD4, [CD4] = 50 nM, and CD4 binding affinity for gp120, Kd = 5 nM. Representative of three experiments, all data are mean ± SD.
Inhibition of gp120-CD4 complex formation was investigated by CD4-to-gp120 capture ELISA, in accordance with manufacturer's instructions (ImmunoDiagnostics, Inc., MA), and as previously described. […] Strepavidin-HRP was added, and then developed by addition of OPD substrate. Colorimetric reaction was stopped by adding 1N HCl, and read at 490 nm. Percent of gp120-CD4 binding was calculated from gp120-CD4 complex formation in the absence of any inhibitor.
(In general: In an ELISA, binding on a coated surface is turned into a signal by an enzyme label.)

The target in data set [2] is T2, soluble extracellular portion of CD4 (sCD4) (Homo sapiens, UniProt P01730).
T2 construct: soluble extracellular portion of CD4 (sCD4); purchased Progenics Pharmaceuticals, Inc
Kind of data set: sCD4 tryptophan fluorescence titration. The conditions noted are these: for Kd: pH 7.4, single site binding isotherm; for quenching of sCD4 tryptophan fluorescence / red shift of the emission peak: saturating concentrations of PA analog. The data set is classed as binding. The procedure: The tryptophan fluorescence of the soluble extracellular portion of CD4 (sCD4) was used to estimate binding affinity of PA analogs for sCD4 in-vitro (Figure 2).
Figure 2 In vitro experiments of PA analogs binding to sCD4. Binding isotherm of the sCD4 tryptophan fluorescence at the wavelength of 350 nm with the increasing concentration of A) 2-BP, B) 6-AP, and C) SP; D) stoichiometric binding of 2-BP to sCD4. Tryptophan fluorescence was measured using an excitation wavelength of 280 nm. In all cases, we observed tryptophan fluorescence quenching of sCD4 by the increasing concentration of PA analogs. During stoichiometric binding experiment the concentration of sCD4 was kept at 200 nM, which is well above the dissociation constant of 2-BP-sCD4, 74 nM. Curve fitting (OriginLab) was performed to find the best values for Kd using a single site binding isotherm approximation.
Since PA analogs form micelles at micromolar concentration it was important to characterize binding stoichiomentry of PA analogs to CD4 (Figure 2D). […] The concentration of sCD4 was kept at 200 nM, which is well above the 74 nM dissociation constant of 2-BP-CD4. In this case, titrated 2-BP was fully bound. The observed changes in sCD4 fluorescence would level off when 2-BP-sCD4 reached proper stoichiometry.
Measurements were performed on a Fluorolog-3 fluorescence spectrophotometer (HORIBA Jobin Yvon) at 25°C in a 1-ml stirred cuvette. For fluorescence titration experiments, 100 nM of sCD4 dissolved in 10 mM phosphate buffer [pH 7.4] and 250 mM NaCl was used, and 100 µM solution of PA analogs, 2-BP, 6-AP, and SP dissolved in dimethylsulfoxide (DMSO) was added in 10 nM steps. Titrations in the absence of sCD4 and in the absence PA analogs were performed as reference. Tryptophan fluorescence was measured using an excitation wavelength of 280 nm. The fluorescence emission signal was subtracted from the signal of the reference titrations, and the differences adjusted by the dilution factor were plotted against the final concentration of added PA analogs. Curve fitting (OriginLab) was performed to find the best values for Kd using a single site binding isotherm approximation.

Data set [3] is described as follows: MTT viability assay in 1G5 cells. The data set is classed as cell-based. The note with it: human, 1G5 cells, 100 to 10,000 nM, up to 72 h, vs untreated mock control. The procedure:
(§1) To ascertain possible toxicity of PA analogs, we tested each analog in cell culture system (Figure 4). 1G5 cells were treated with increasing concentrations of 2-BP, 6-AP, or SP, from 100 to 10,000 nM, and viability was determined by MTT assay at 24 h. (not shown) and at 72 h (Figure 4). Viability for all treatments and at all concentrations tested, remained ≥92% for up to 72 h. of follow-up.
(§2) Figure 4 Viability of PA analogs in tissue culture. 1G5 cells were treated with increasing concentrations of 2-BP, 6-AP, and SP, as indicated, and cell viability was determined 72 h. after treatment by MTT assay. % Viable cells were calculated from untreated mock control, which was taken as 100% viable. Bars indicate ± SD, representative of 2 experiments.
(§3) For determination of viability, 1G5 cells were seeded in 12 well plates at 1×10^6 cells/well, treated with increasing concentrations of PA analogs, from 100 to 10,000 nM (0.1 to 10 µM), as indicated. After 24 and 72 hours, cells were collected and analyzed for viability by a CellTiter 96 Non-Radioactive Cell Proliferation Assay [(3-(4,5-Dimethyl-2-thiazolyl)-2,5 dephenyltetrazolium, Promega,] (MTT) assay, as specified by the manufacturer, and as previously described.
(In general: Tetrazolium dyes change colour on reduction, which living cells bring about.)

Another data set deals with T3, soluble gp120 (Human immunodeficiency virus type 1 group M subtype B, UniProt P03375).
T3 construct: purchased
As to the kind of experiment: reverse ELISA: plates coated with sCD4, gp120 incubated with compound. It is filed as binding, HIV-1. The note with it: plates coated with sCD4, gp120 incubated with increasing concentrations (not shown).

Another data set has as its system 1G5 cells. Kind of data set: MTT viability assay in 1G5 cells. The data set is classed as cell-based. The note with it: 100 to 10,000 nM, up to 72 h, vs untreated mock control. The procedure:
as §1, §2, §3

The target of the next data set is CD4 receptor. The conditions noted are these: cited from earlier work.
In another data set the test system is gp120. The conditions noted are these: cited from earlier work.
For another data set, the target named is gp120-to-CD4 attachment. More on the design: method as in submitted for publication. The note with it: ref submitted for publication; read-out: Ki for blocking gp120-to-CD4 attachment; cited from earlier work.
In data set [4] the test system is R5-tropic HIV-1. The conditions noted are these: primary PBL and macrophages; read-out: IC50 of productive R5-tropic HIV-1 infection; cited from earlier work.
The test system of data set [5] is R5-tropic HIV-1. More on the design: method as in submitted for publication. The conditions noted are these: ref submitted for publication, cited from earlier work.
For the next data set, the system named is X4-tropic HIV-1. The note with it: primary PBL and macrophages; read-out: IC50 of productive X4-tropic HIV-1 infection; cited from earlier work.
[6] abbreviates: Ki = IC50/(1+[CD4]/Kd), [CD4] = 50 nM, Kd = 5 nM, read-out: Ki, inhibition constant for gp120-CD4 complex formation.
[7] abbreviates: 100 nM sCD4, 25°C, read-out: Kd, dissociation constant for sCD4.

Values joined by “and” are separate entries in the source; they are usually repeats but may differ in a detail not shown here. Equal entries are not always repeated. Where two headings read alike, the source gives them in different places.

As a reminder, the Ki is the equilibrium dissociation constant of an inhibitor or competing ligand from its target. As usually defined, the Kd is the concentration at which binding is half-saturated. In general, viability refers to the share of living cells, or the viability signal relative to a control. Consider `CCCCCCCCCCCCCCC(Br)C(=O)O` (centres unmarked) [2-BP, 2-Bromohexadecanoic acid], for which, in data set [1], the “cmc, critical micelle concentration” value is 5 µM. The Ki on gp120 (IIIB)-CD4 complex (setting [6]) was 122 nM and ~122 nM; on gp120 (IIIB)-CD4 complex (pKi (-log Ki, M), gp120 (IIIB), 50 nM biotin-sCD4, mean ± SD), 120 nM. In addition, the dissociation constant (Kd) in data set [2] (Kd, dissociation constant for sCD4, 100 nM sCD4, 25°C) is 74 nM and ~74 nM. Further, the “quenching of sCD4 tryptophan fluorescence” value in data set [2] is on record as 50%. In [2], the “red shift of the emission peak” value turned out to be 4 nm. The “concentration at which fluorescence quenching was saturated” value in data set [2] (stoichiometric titration, sCD4 kept at 200 nM) is 200 µM. The molecule further had a viability in [3] not below 92%. The “inhibition of gp120-CD4 complex formation in reverse experiment” value (shortened to “inhibition … in reverse experiment”) at soluble gp120 is recorded as “not inhibited”.
For Sucrose palmitate [SP], the “cmc, critical micelle concentration” value in data set [1] worked out at 30 µM. Further, the inhibition constant Ki at gp120 (IIIB)-CD4 complex (setting [6]) is 1490 nM and ~1490 nM. For the same molecule, the “pKi (-log Ki, M)” value at gp120 (IIIB)-CD4 complex (gp120 (IIIB), 50 nM biotin-sCD4, mean ± SD) stood at 5.83 ± 0.15. Besides, in data set [2] (setting [7]), the Kd was 364 nM and ~364 nM. In addition, in [2], the “quenching of sCD4 tryptophan fluorescence” value is 60% and the “red shift of the emission peak” value is recorded as 5 nm. Further, the viability in the data set on 1G5 cells was not below 92%. At soluble gp120, the “inhibition … in reverse experiment” value is recorded as “not inhibited”.
In the case of `CCCCCCCCCCCCCCCC(=O)OC[C@H](O)[C@H]1OC(=O)C(O)=C1O` [6-AP, 6-O-Palmitoyl-L-ascorbic acid], the “cmc, critical micelle concentration” value in data set [1] is 7 µM. For the same molecule, the Ki at gp120 (IIIB)-CD4 complex (Ki, inhibition constant for gp120-CD4 complex formation, Ki = IC50/(1+[CD4]/Kd), [CD4] = 50 nM, Kd = 5 nM) is 354 nM and ~354 nM. Also, in data set [2] (setting [7]), the dissociation constant (Kd) is 140 nM and ~140 nM. Also, in data set [2], the “quenching of sCD4 tryptophan fluorescence” value is 40% and the “red shift of the emission peak” value was 3 nm. Also, the viability in [3] is not below 92%. Besides, the “inhibition … in reverse experiment” value at soluble gp120 is listed as “not inhibited”.
Broadly, the IC50 is the midpoint of a concentration-inhibition curve. For the molecule `CCCCCCCCCCCCCCCC(=O)O` [PA, Palmitic acid], in data set [1], the “cmc, critical micelle concentration” value stood at 4 µM. In addition, at CD4 receptor, the dissociation constant Kd was approximately 1500 nM. For the same molecule, the “binding to gp120” value with gp120 is on record as “does not bind to gp120”. In addition, the inhibition constant Ki on gp120-to-CD4 attachment is approximately 2530 nM. In addition, the half-inhibitory concentration (IC50) in the data set with R5-tropic HIV-1 [4] was approximately 33 µM; with X4-tropic HIV-1, approximately 340 nM. In the data set on R5-tropic HIV-1 [5] (cervical explant model of human vagina and submucosa primary PBL and macrophage cells), the “inhibition of R5-tropic HIV-1 infection” value was “inhibited”. For the same molecule, the “toxicity in cervical explant model” value in the data set with R5-tropic HIV-1 [5] (cervical explant model of human vagina) is “without toxicity”.

The record behind these values is PMC2921400 (PLoS ONE, 2010).
